Source: US10435398B2, “Oxazole orexin receptor antagonists” (MERCK SHARP & DOHME CORP., priority 2014, dated 2019)

Assays:
human orexin-1 receptor = human orexin-1 receptor (Homo sapiens (Human), UniProt O43613); test: FLIPR Ca2+ Flux Assay, hOX1R; type: cell-based; conditions: CHO cells expressing human orexin-1 receptor; agonist 70 pM Ala-6,12 human orexin-A
Method: (§1) The utility of the compounds in accordance with the present invention as orexin receptor OX1R and/or OX2R antagonists may be readily determined without undue experimentation by methodology well known in the art, including the “FLIPR Ca^2+ Flux Assay” (Okumura et al., Biochem. Biophys. Res. Comm. 280:976-981, 2001). In a typical experiment the OX1 and OX2 receptor antagonistic activity of the compounds of the present invention was determined in accordance with the following experimental method. For intracellular calcium measurements, Chinese hamster ovary (CHO) cells expressing the rat or human orexin-1 receptor or the human orexin-2 receptor, are grown in Iscove's modified DMEM containing 2 mM L-glutamine, […], 1% hypoxanthine-thymidine supplement, 100 U/ml penicillin, 100 μg/ml streptomycin and 10% heat-inactivated fetal calf serum (FCS). The cells are seeded at 20,000 cells/well into Becton-Dickinson black 384-well clear bottom sterile plates coated with poly-D-lysine. All reagents were from GIBCO-Invitrogen Corp. The seeded plates are incubated overnight at 37° C. and 5% CO2. Ala-6,12 human orexin-A as the agonist is prepared as a 1 mM stock solution in 1% bovine serum albumin (BSA) and diluted in assay buffer (HBSS containing 20 mM HEPES, 0.1% BSA and 2.5 mM probenecid, pH7.4) for use in the assay at a final concentration of 70 pM. Test compounds are prepared as 10 mM stock solution in DMSO, then diluted in 384-well plates, first in DMSO, then assay buffer. On the day of the assay, cells are washed 3 times with 100 μl assay buffer and then incubated for 60 min (37° C., 5% CO2) in 60 μl assay buffer containing 1 μM Fluo-4AM ester, 0.02% pluronic acid, and 1% BSA. The dye loading solution is then aspirated and cells are washed 3 times with 100 μl assay buffer. 30 μl of that same buffer is left in each well. Within the Fluorescent Imaging Plate Reader (FLIPR, Molecular Devices), test compounds are added to the plate in a volume of 25 μl, incubated for 5 min and finally 25 μl of agonist is added. Fluorescence is measured for each well at 1 second intervals for 5 minutes and the height of each fluorescence peak is compared to the height of the fluorescence peak induced by 70 pM Ala-6,12 orexin-A with buffer in place of antagonist. For each antagonist, IC50 value (the concentration of compound needed to inhibit 50% of the agonist response) is determined. Alternatively, compound potency can be assessed by a radioligand binding assay (described in Bergman et. al. Bioorg. Med. Chem. Lett. 2008, 18, 1425-1430) in which the inhibition constant (Ki) is determined in membranes prepared from CHO cells expressing either the OX1 or OX2 receptor. The intrinsic orexin receptor antagonist activity of a compound which may be used in the present invention may be determined by these assays.

human orexin-2 receptor = human orexin-2 receptor (Homo sapiens (Human), UniProt O43614); test: FLIPR Ca2+ Flux Assay, hOX2R; type: cell-based; conditions: CHO cells expressing human orexin-2 receptor; agonist 70 pM Ala-6,12 human orexin-A
Method: as §1

Sequence of human orexin-2 receptor (O43614 whole entry): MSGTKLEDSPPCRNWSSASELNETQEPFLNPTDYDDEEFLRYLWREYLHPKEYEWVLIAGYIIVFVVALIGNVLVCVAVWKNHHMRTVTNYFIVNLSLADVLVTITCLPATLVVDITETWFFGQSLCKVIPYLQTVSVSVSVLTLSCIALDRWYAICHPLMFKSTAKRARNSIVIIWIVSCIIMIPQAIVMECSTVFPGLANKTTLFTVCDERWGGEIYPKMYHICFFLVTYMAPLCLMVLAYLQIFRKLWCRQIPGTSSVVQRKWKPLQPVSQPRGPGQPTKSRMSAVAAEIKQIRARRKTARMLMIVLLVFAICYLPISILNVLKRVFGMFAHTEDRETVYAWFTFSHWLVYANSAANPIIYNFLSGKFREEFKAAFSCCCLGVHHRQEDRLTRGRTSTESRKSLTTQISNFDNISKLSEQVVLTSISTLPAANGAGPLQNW
Sequence of human orexin-1 receptor (O43613 whole entry): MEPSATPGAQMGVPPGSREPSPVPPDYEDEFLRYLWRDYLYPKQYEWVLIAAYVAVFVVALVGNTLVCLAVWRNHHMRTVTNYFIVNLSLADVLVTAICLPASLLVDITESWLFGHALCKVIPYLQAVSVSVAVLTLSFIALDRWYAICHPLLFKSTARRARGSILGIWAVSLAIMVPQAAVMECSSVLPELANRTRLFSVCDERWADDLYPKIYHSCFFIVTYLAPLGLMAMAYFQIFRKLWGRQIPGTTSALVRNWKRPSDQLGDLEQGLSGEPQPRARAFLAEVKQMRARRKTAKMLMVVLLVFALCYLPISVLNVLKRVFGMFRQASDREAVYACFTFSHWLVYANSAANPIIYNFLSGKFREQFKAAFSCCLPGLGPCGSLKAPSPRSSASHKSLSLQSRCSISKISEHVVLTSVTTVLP

SMILES | IC50 (human orexin-1 receptor) [nM] | IC50 (human orexin-2 receptor) [nM]
CCN(CCc1nc(C(C)(C)O)c(C)o1)C(=O)c1ccccc1-c1ccccc1 [Example 1, N-Ethyl-N-(2-(4-(2-hydroxypropan-2-yl)-5-methyloxazol-2-yl)ethyl)-[1,1′-biphenyl]-2-carboxamide] | 1830 | 29
CCN(CCc1nc(C(C)(C)O)c(C)o1)C(=O)c1cccc(C)c1-n1nccn1 [Example 2, N-Ethyl-N-{2-[4-(1-hydroxy-1-methylethyl)-5-methyl-1,3-oxazol-2-yl]ethyl}-3-methyl-2-(2H-1,2,3-triazol-2-yl)benzamide] | > 10000 | 54
CCN(CCc1nc(C(C)(C)O)c(C)o1)C(=O)c1cccc(F)c1-n1nccn1 [Example 3, N-Ethyl-3-fluoro-N-{2-[4-(1-hydroxy-1-methylethyl)-5-methyl-1,3-oxazol-2-yl]ethyl}-2-(2H-1,2,3-triazol-2-yl)benzamide] | > 10000 | 44
CCN(CCc1nc(C(C)(C)O)c(C)o1)C(=O)c1ccc(F)cc1-n1nccn1 [Example 4, N-Ethyl-4-fluoro-N-{2-[4-(1-hydroxy-1-methylethyl)-5-methyl-1,3-oxazol-2-yl]ethyl}-2-(2H-1,2,3-triazol-2-yl)benzamide] | > 10000 | 48
CCN(CCc1nc(C(C)(C)O)c(C)o1)C(=O)c1ccccc1C1CC1 [Example 5, 2-Cyclopropyl-N-ethyl-N-{2-[4-(1-hydroxy-1-methylethyl)-5-methyl-1,3-oxazol-2-yl]ethyl}benzamide] | > 10000 | 387
CCN(CCc1nc(C(C)(C)O)c(C)o1)C(=O)c1cccnc1-n1cccn1 [Example 6, N-Ethyl-N-{2-[4-(1-hydroxy-1-methylethyl)-5-methyl-1,3-oxazol-2-yl]ethyl}-2-(1H-pyrazol-1-yl)pyridine-3-carboxamide] | > 10000 | 101
CCN(CCc1nc(C(C)(C)O)c(C)o1)C(=O)c1cc(F)ccc1-n1nccn1 [Example 7, N-Ethyl-5-fluoro-N-{2-[4-(1-hydroxy-1-methylethyl)-5-methyl-1,3-oxazol-2-yl]ethyl}-2-(2H-1,2,3-triazol-2-yl)benzamide] | > 10000 | 62
CCN(CCc1nc(C(C)(C)O)c(C)o1)C(=O)c1ccc(OC)cc1-n1nccn1 [Example 8, N-Ethyl-N-{2-[4-(1-hydroxy-1-methylethyl)-5-methyl-1,3-oxazol-2-yl]ethyl}-4-methoxy-2-(2H-1,2,3-triazol-2-yl)benzamide] | > 10000 | 82
CCN(CCc1nc(C(C)(C)O)c(C)o1)C(=O)c1ccccc1-n1ncnn1 [Example 9, N-ethyl-N-{2-[4-(1-hydroxy-1-methylethyl)-5-methyl-1,3-oxazol-2-yl]ethyl}-2-(2H-tetrazol-2-yl)benzamide] | > 10000 | 491
CCN(CCc1nc(C(C)(C)O)c(C)o1)C(=O)c1cccnc1OCC(F)F [Example 10, 2-(2,2-difluoroethoxy)-N-ethyl-N-{2-[4-(1-hydroxy-1-methylethyl)-5-methyl-1,3-oxazol-2-yl]ethyl}pyridine-3-carboxamide] | > 10000 | 224
CCN(CCc1nc(C(C)(C)O)c(C)o1)C(=O)c1ccccc1C1(C#N)CC1 [Example 10b, 2-(1-cyanocyclopropyl)-N-ethyl-N-{2-[4-(1-hydroxy-1-methylethyl)-5-methyl-1,3-oxazol-2-yl]ethyl}benzamide] | 1760 | 26
CCN(CCc1nc(C(C)(C)O)c(C)o1)C(=O)c1ccccc1-c1nc(C)no1 [Example 10c, N-ethyl-N-{2-[4-(1-hydroxy-1-methylethyl)-5-methyl-1,3-oxazol-2-yl]ethyl}-2-(3-methyl-1,2,4-oxadiazol-5-yl)benzamide] | > 10000 | 212
CCN(CCc1nc(C(C)(C)O)c(C)o1)C(=O)c1sccc1-n1nccn1 [Example 10d, N-ethyl-N-{2-[4-(1-hydroxy-1-methylethyl)-5-methyl-1,3-oxazol-2-yl]ethyl}-3-(2H-1,2,3-triazol-2-yl)thiophene-2-carboxamide] | > 10000 | 435
CCN(CCc1nc(C(C)(C)O)c(C)o1)C(=O)c1ccccc1-n1nccn1 [Example 11, N-Ethyl-N-{2-[4-(1-hydroxy-1-methylethyl)-5-methyl-1,3-oxazol-2-yl]ethyl}-2-(2H-1,2,3-triazol-2-yl)benzamide] | 2590 | 27
CCN(CCc1nc(C(C)(C)O)c(C)o1)C(=O)c1ccsc1-n1nccn1 [Example 12, N-Ethyl-N-{2-[4-(1-hydroxy-1-methylethyl)-5-methyl-1,3-oxazol-2-yl]ethyl}-2-(2H-1,2,3-triazol-2-yl)thiophene-3-carboxamide] | > 10000 | 63
CCN(CCc1nc(C(C)(C)O)c(C)o1)C(=O)c1cccnc1OCC(F)(F)F [Example 13, N-Ethyl-N-{2-[4-(1-hydroxy-1-methylethyl)-5-methyl-1,3-oxazol-2-yl]ethyl}-2-(2,2,2-trifluoroethoxy)pyridine-3-carboxamide] | > 10000 | 98
CCN(CCc1nc(C(C)(C)O)c(C)o1)C(=O)c1ccccc1CC(F)(F)F [Example 14, N-Ethyl-N-{2-[4-(1-hydroxy-1-methylethyl)-5-methyl-1,3-oxazol-2-yl]ethyl}-2-(2,2,2-trifluoroethyl)benzamide] | > 10000 | 211
CCOc1ccccc1C(=O)N(CC)CCc1nc(C(C)(C)O)c(C)o1 [Example 15, 2-Ethoxy-N-ethyl-N-{2-[4-(1-hydroxy-1-methylethyl)-5-methyl-1,3-oxazol-2-yl]ethyl}benzamide] | > 10000 | 223
CCN(CCc1nc(C(C)(C)O)c(C)o1)C(=O)c1ccccc1C(=O)OC [Example 16, Methyl 2-(ethyl{2-[4-(1-hydroxy-1-methylethyl)-5-methyl-1,3-oxazol-2-yl]ethyl}carbamoyl)benzoate] | > 10000 | 630
CCN(CCc1nc(C(C)(C)O)c(C)o1)C(=O)c1ccccc1-n1cccn1 [Example 17, N-Ethyl-N-{2-[4-(1-hydroxy-1-methylethyl)-5-methyl-1,3-oxazol-2-yl]ethyl}-2-(1H-pyrazol-1-yl)benzamide] | > 10000 | 292
CCN(CCc1nc(C(C)(C)O)c(C)o1)C(=O)c1ccccc1C1(C(F)F)CC1 [Example 18b, 2-(1-(difluoro-methyl)cyclopropyl)-N-ethyl-N-(2-(4-(2-hydroxypropan-2-yl)-5-methyloxazol-2-yl)ethyl)benzamide] | > 10000 | 145
CCN(CCc1nc(C(C)(O)CC)c(C)o1)C(=O)c1ccccc1-n1nccn1 (stereo not shown) [Example 19, N-Ethyl-N-{2-[4-(1-hydroxy-1-methylpropyl)-5-methyl-1,3-oxazol-2-yl]ethyl}-2-(2H-1,2,3-triazol-2-yl)benzamide] | 3380 | 12
CCN(CCc1nc(C(C)(O)C(C)C)c(C)o1)C(=O)c1ccccc1-n1nccn1 (stereo not shown) [Example 20, N-Ethyl-N-{2-[4-(1-hydroxy-1,2-dimethylpropyl)-5-methyl-1,3-oxazol-2-yl]ethyl}-2-(2H-1,2,3-triazol-2-yl)benzamide] | 2670 | 19
C=CCN(CCc1nc(C(C)(C)O)c(C)o1)C(=O)c1ccccc1-n1nccn1 [Example 21, N-{2-[4-(1-Hydroxy-1-methylethyl)-5-methyl-1,3-oxazol-2-yl]ethyl}-N-prop-2-en-1-yl-2-(2H-1,2,3-triazol-2-yl)benzamide] | 1010 | 19
CCCN(CCc1nc(C(C)(C)O)c(C)o1)C(=O)c1ccccc1-n1nccn1 [Example 22, N-{2-[4-(1-Hydroxy-1-methylethyl)-5-methyl-1,3-oxazol-2-yl]ethyl}-N-propyl-2-(2H-1,2,3-triazol-2-yl)benzamide] | 2370 | 19
Cc1oc(CCN(CC2CC2)C(=O)c2ccccc2-n2nccn2)nc1C(C)(C)O [Example 23, N-(Cyclopropylmethyl)-N-{2-[4-(1-hydroxy-1-methylethyl)-5-methyl-1,3-oxazol-2-yl]ethyl}-2-(2H-1,2,3-triazol-2-yl)benzamide] | 2840 | 21
